EC50 data for eleven compounds are collected here from patent US8835422B2, “Substituted imidazoheterocycle derivatives” (Cara Therapeutics, Inc., priority 2008, dated 2014).

The target in the first test is human CB1 receptor (hCB1) (Homo sapiens, UniProt P21554). Put plainly: cAMP assay (LANCE TR-FRET) in CHO-K1 cells stably expressing hCB1. The test is classed as cell-based. The method, then: (§1) The ability of compounds to act as agonists or inverse agonists at human CB2 and CB1 receptors (hCB2, hCB1, respectively) and at the rat CB2 receptor (rCB2) was determined by measuring changes in intracellular cAMP levels. Chinese Hamster Ovary (CHO-K1) cell lines stably expressing hCB2 (Genebank: X74328) or hCB1 (Genebank: X54937) were purchased from Euroscreen (Gosselies, Belgium). The rat CB2 receptor was expressed from genomic DNA (provided by M. Abood, California Pacific Medical Center) in CHO-K1 cells from expression plasmid vector, pcDNA3.1.
Chain of human CB1 receptor (hCB1) (P21554 whole entry): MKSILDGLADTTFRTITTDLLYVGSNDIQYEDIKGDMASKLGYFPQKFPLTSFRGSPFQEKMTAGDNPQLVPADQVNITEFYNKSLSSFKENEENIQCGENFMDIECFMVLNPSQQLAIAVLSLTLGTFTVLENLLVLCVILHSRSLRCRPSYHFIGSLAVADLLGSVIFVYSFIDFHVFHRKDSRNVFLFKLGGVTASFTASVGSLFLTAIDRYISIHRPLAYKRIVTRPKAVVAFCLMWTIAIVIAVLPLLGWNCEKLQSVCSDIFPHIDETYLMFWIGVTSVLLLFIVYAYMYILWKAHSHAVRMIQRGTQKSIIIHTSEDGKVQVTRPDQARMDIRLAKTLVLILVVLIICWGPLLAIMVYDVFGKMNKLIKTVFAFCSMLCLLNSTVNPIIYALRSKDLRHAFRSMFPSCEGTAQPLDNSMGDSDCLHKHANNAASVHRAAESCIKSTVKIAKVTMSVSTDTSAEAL
(§2) Receptor mediated responses were determined by measuring changes in intracellular cAMP using LANCE cAMP detection kit (cat #AD0264, Perkin Elmer, Wellesley, Mass.) based on time-resolved fluorescence resonance energy transfer (TR-FRET).
(§3) On the day of the experiment, cells were spun at low speed for 5 min at room temperature. […] Cell clumps were removed by filtering through cell strainer 40 μm (BD Falcon, Discovery Labware, Bedford, Mass.) and diluted to 2×10^5 cells/mL. Antibody supplied with the LANCE cAMP immunoassay kit was then added according to the manufacturer's instructions. An aliquot of cells was taken for un-induced controls. […] Cells were then incubated for 30 min at room temperature prior to adding to Proxiplates containing test compounds (final DMSO concentration was less than 0.5%) with a Multidrop bulk dispenser, followed by a sixty minute incubation at room temperature. The response was stopped by addition of the detection mix supplied with the LANCE kit. The reagents were allowed to equilibrate for three hours prior to reading on an Envision multi-mode detector (Perkin-Elmer). TR-FRET was measured using a 330-380 nm excitation filter, a 665 nm emission filter, dichroic mirror 380 nm and Z=1 mm. Cyclic AMP concentrations in each well were back-calculated from a cAMP standard curve run concurrently during each assay. Each plate contained 16 wells of forskolin stimulated cells and 16 wells of forskolin plus CP55,940-treated cells. […] Concentrations of cAMP were expressed as a percent of the difference of these two groups of wells.
Background: cAMP levels reflect the balance of adenylyl cyclase and phosphodiesterase activity.
With `CNC(=O)[C@@H](NC(=O)c1nc(-c2cc(F)ccc2F)n2c1COCCC2)C(C)(C)C` [Compound 1-12, (S)-3-(2,5-difluorophenyl)-N-(3,3-dimethyl-1-(methylamino)-1-oxobutan-2-yl)-5,6,7,9-tetrahydroimidazo[5,1-c][1,4]oxazepine-1-carboxamide], the EC50 (in general, the concentration at which the effect is half-maximal) is 0.1 to 10 nM.
The compound `COC(=O)[C@@H](NC(=O)c1nc(-c2ccccc2)n2c1CCCCC2)C(C)(C)C` [Compound 1-24, (S)-methyl 3,3-dimethyl-2-(3-phenyl-6,7,8,9-tetrahydro-5H-imidazo[1,5-a]azepine-1-carboxamido)butanoate] gave an EC50 of 0.1 to 10 nM.

The target in a further test is T1, human CB2 receptor (hCB2) (Homo sapiens, UniProt P34972).
T1 construct: host or cells: CHO-K1
T1 sequence (P34972 whole entry): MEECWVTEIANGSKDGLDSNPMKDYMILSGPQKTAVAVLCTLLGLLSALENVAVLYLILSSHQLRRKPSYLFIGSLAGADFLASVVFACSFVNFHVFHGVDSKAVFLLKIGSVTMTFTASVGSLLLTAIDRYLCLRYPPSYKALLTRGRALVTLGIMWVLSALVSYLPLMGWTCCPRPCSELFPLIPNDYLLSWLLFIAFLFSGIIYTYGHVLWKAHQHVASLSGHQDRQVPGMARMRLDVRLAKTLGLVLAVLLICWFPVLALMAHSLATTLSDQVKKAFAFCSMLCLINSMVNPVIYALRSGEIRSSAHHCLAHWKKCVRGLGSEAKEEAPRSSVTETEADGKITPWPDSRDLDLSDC
The test is described as follows: cAMP assay (LANCE TR-FRET) in CHO-K1 cells stably expressing hCB2. It is filed as cell-based. As for the experimental part:
as §1, §2, §3
Consider `CNC(=O)[C@@H](NC(=O)c1nc(-c2cc(F)ccc2F)n2c1COCCC2)C(C)(C)C` [Compound 1-12, (S)-3-(2,5-difluorophenyl)-N-(3,3-dimethyl-1-(methylamino)-1-oxobutan-2-yl)-5,6,7,9-tetrahydroimidazo[5,1-c][1,4]oxazepine-1-carboxamide], for which the EC50 was 0.1 to 10 nM.
In the case of `COC(=O)[C@@H](NC(=O)c1nc(-c2ccccc2)n2c1CCCCC2)C(C)(C)C` [Compound 1-24, (S)-methyl 3,3-dimethyl-2-(3-phenyl-6,7,8,9-tetrahydro-5H-imidazo[1,5-a]azepine-1-carboxamido)butanoate], the EC50 lay within 0.1 to 10 nM.
As to `CNC(=O)[C@@H](NC(=O)c1nc(-c2ccccc2)n2c1CCOCC2)C(C)(C)C` [Compound 1-8, (S)—N-(3,3-dimethyl-1-(methylamino)-1-oxobutan-2-yl)-3-phenyl-5,6,8,9-tetrahydroimidazo[1,5-d][1,4]oxazepine-1-carboxamide], the EC50 lay within 10 to 100 nM.
Consider `CNC(=O)[C@@H](NC(=O)c1nc(-c2ccc(F)c(F)c2)n2c1CN(C)CC(C)(C)C2)C(C)(C)C` [Compound 2-1, (S)-3-(3,4-difluorophenyl)-N-(3,3-dimethyl-1-(methylamino)-1-oxobutan-2-yl)-6,6,8-trimethyl-6,7,8,9-tetrahydro-5H-imidazo[1,5-a][1,4]diazepine-1-carboxamide], for which the EC50 lay in the range of 10 to 100 nM.
Take `CC(C)(C)[C@@H](CO)NC(=O)c1nc(-c2ccc(F)c(F)c2)n2c1CCCCC2` [Compound 1-6, (S)-3-(3,4-difluorophenyl)-N-(1-hydroxy-3,3-dimethylbutan-2-yl)-6,7,8,9-tetrahydro-5H-imidazo[1,5-a]azepine-1-carboxamide]: the EC50 lay in the range of 0.1 to 10 nM.
In the case of `O=C(N[C@@H]1CCCc2ccccc21)c1nc(-c2ccc(F)c(F)c2)n2c1CCCCC2` [Compound 1-21, (R)-3-(3,4-difluorophenyl)-N-(1,2,3,4-tetrahydronaphthalen-1-yl)-6,7,8,9-tetrahydro-5H-imidazo[1,5-a]azepine-1-carboxamide], the EC50 lay within 0.1 to 10 nM.
The same measure, in the same setting: in the case of `CNC(=O)[C@@H](NC(=O)c1nc(-c2ccc(F)c(F)c2)n2c1CN(C)C(C)CC2)C(C)(C)C` (single isomer, unassigned) [Compound 2-4] it was 10 to 100 nM; in that of `O=C(N[C@H]1CCCc2ccccc21)c1nc(-c2ccc(F)c(F)c2)n2c1CCCCC2` [Compound 1-20, (S)-3-(3,4-difluorophenyl)-N-(1,2,3,4-tetrahydronaphthalen-1-yl)-6,7,8,9-tetrahydro-5H-imidazo[1,5-a]azepine-1-carboxamide], 0.1 to 10 nM.
Take `CC(C)(C)[C@H](NC(=O)c1nc(-c2ccc(F)c(F)c2)n2c1COCCC2)C(=O)NCCO` [Compound 1-11, (S)-3-(3,4-difluorophenyl)-N-(1-(2-hydroxyethylamino)-3,3-dimethyl-1-oxobutan-2-yl)-5,6,7,9-tetrahydroimidazo[5,1-c][1,4]oxazepine-1-carboxamide]: the EC50 fell in the range of 10 to 100 nM.
Consider `O=C(N[C@H]1c2ccccc2C[C@@H]1O)c1nc(-c2ccc(F)c(F)c2)n2c1CCCCC2` [Compound 1-15, 3-(3,4-difluorophenyl)-N-((1S,2S)-2-hydroxy-2,3-dihydro-1H-inden-1-yl)-6,7,8,9-tetrahydro-5H-imidazo[1,5-a]azepine-1-carboxamide], for which the concentration for a half-maximal effect (EC50) lay within 0.1 to 10 nM.
Take `O=C(NC1CCc2ccccc21)c1nc(-c2ccc(F)c(F)c2)n2c1CCCCC2` (stereo not shown) [Compound 1-19, 3-(3,4-difluorophenyl)-N-(2,3-dihydro-1H-inden-1-yl)-6,7,8,9-tetrahydro-5H-imidazo[1,5-a]azepine-1-carboxamide]: the EC50 lay in the range of 0.1 to 10 nM.
